Reference: US20250115943A1, “SYSTEM AND METHOD FOR ANTIMICROBIAL SUSCEPTIBILITY TESTING” (priority 2023, published 2025)
In brackets after ≈: the same amount, converted by molar mass.

Legend:
S. aureus ATCC 29213 [1] = assay: CytoSPAR BLAST antibiotic susceptibility test; format: cell-based; settings: S. aureus ATCC 29213; for S, I, R: susceptible, intermediate, resistant category; for MIC: Staphylococcus aureus, ATCC29213, Table 6, optimized BLAST, cutoff 0.8, read-out: MIC BLAST
Description: (§1) The disclosed technology, which is referred to as the CytoSPAR BLAST (Bacteria Labeling Antibiotic Susceptibility Test) system, is used to quantitatively assess bacterial minimal inhibitory concentration of antibiotics for in vitro susceptibility testing. Used as an aid in diagnosis for clinicians in determining potential treatment options for patients suspected of having a microbial infection, BLAST is intended to determine susceptibility of microorganisms to the listed antibiotics (or other antimicrobials) according to manufacturer's standards. The system is intended for use with clinical isolates from liquid culture and colonies grown on agar (solid medium) or directly from urine samples. Certain implementations of BLAST determine antibiotic susceptibility for a wide range of bacteria obtained from various types of patient samples, including samples from individuals suffering from urinary tract infections. The disclosed technology includes a high-throughput assay that directly detects bacterial susceptibility to a library of frequently used antibiotics and covers both Gram-negative and Gram-positive bacteria.
(§2) The test incorporates a non-canonical amino acid (ncAA) into newly produced proteins. The incorporated ncAA includes a reactive group which allows a specific modification and detection of the living bacteria. The assay involves bacterial incorporation of the ncAA, a chemical reaction between a reactive group and a fluorophore-tagged ligand, and detection of the newly fluorescent-tagged bacteria using a fluorescent plate reader or functionally similar device. The ncAA is added to bacterial growth media and is incorporated into newly synthesized bacterial proteins. The reactive groups on the ncAA are not naturally found in bacteria and act as a specific reactive group for bacteria undergoing active protein synthesis. […] The entire process is performed in a microtiter filter plate for high-throughput scale-up. Alternatively, a normal 96-well plate can also be used in which case centrifugation is used to wash the plate instead of filtration.
(§3) In an example embodiment, bacterial samples are first diluted and incubated in acclimatization media. After treatment with one or more antimicrobials, the ncAA is added and is taken up by living bacteria during protein biosynthesis in a process called labeling. […] The Click-Chemistry reaction between the alkyne group of the ncAA and the azide group of the fluorophore-tagged ligand requires the presence of copper in the reduced state-copper (I). In other implementations, the functional groups of the click chemistry reaction can be changed so that the ncAA has the azide group and the dye has the alkyne group. […] Other reducing agents may be used in the BLAST assay, for example, aldoses (sugars) including glyceraldehyde, glucose, and ribose to replace sodium ascorbate. Likewise, alternate chelators may be used (e.g., histidine in place of BTTAA). In some implementations, metal-free click chemistry reactions are performed without using copper.
(§4) Using the BLAST system, tests can be performed on isolates or direct urine samples. Isolates may be from urine, blood, or other body fluids. Isolated bacteria may be either Gram-positive or Gram-negative. In an example implementation, living bacterial samples in acclimatization media (Buffer A) are distributed in a microtiter filter plate, wherein certain predetermined wells include antibiotics of interest at different concentrations. These antibiotics are arrayed with increasing concentrations in adjacent wells so that the bacterial response can be measured against each specific concentration. The response is measured quantitatively, and a value that corresponds to the ability of the bacteria to metabolize and grow is measured.

E. coli ATCC 25922 = assay: CytoSPAR BLAST antibiotic susceptibility test; format: cell-based; settings: for S, I, R: susceptible, intermediate, resistant category; for MIC: Escherichia coli, ATCC25922, Table 6, optimized BLAST, cutoff 0.8, read-out: MIC BLAST
Description: as §1, §2, §3, §4

S. aureus ATCC 29213 [2] = settings: CLSI M100-Ed34E; cited from earlier work

SMILES | S, I, R (S. aureus ATCC 29213 [1]) | MIC (S. aureus ATCC 29213 [1]) | S, I, R (E. coli ATCC 25922) | MIC CLSI QC Range (S. aureus ATCC 29213 [2]) | MIC (E. coli ATCC 25922)
CO/N=C(\C(=O)N[C@@H]1C(=O)N2C(C(=O)O)=C(CSc3nc(=O)c(=O)[nH]n3C)CS[C@H]12)c1csc(N)n1 [Ceftriaxone, ceftriaxone] | Susceptible | 1 µg/mL (≈ 1.8 µM) | Susceptible |  | 
CO/N=C(\C(=O)N[C@@H]1C(=O)N2C(C(=O)O)=C(COC(N)=O)CS[C@H]12)c1ccco1 [Cefuroxime, cefuroxime] | Susceptible | 0.25 µg/mL (≈ 0.589 µM) | Susceptible | 0.5 to 2 µg/mL | 4 µg/mL (≈ 9.43 µM)
C[C@@H](O)[C@H]1C(=O)N2C(C(=O)O)=C(S[C@@H]3CN[C@H](C(=O)N(C)C)C3)[C@H](C)[C@H]12 [Meropenem, meropenem] | Susceptible |  | Susceptible |  | 
CC1(C)S[C@@H]2[C@H](NC(=O)[C@H](N)c3ccccc3)C(=O)N2[C@H]1C(=O)O [Ampicillin, ampicillin] | Susceptible |  | Susceptible | 0.5 to 2 µg/mL | 4 µg/mL (≈ 11.4 µM)
